Each block holds one compound with its values, some of them ahead of it.
Experiments:
[1] = biological target: T1, σ2 receptor (Rattus norvegicus, UniProt Q5U3Y7); assay: σ2 receptor binding assay with [^3H]DTG in the presence of; conditions: for Ki: Ki-σ2, [^3H]DTG + 1 μM (+)-pentazocine, rat liver membranes, mean ± SEM
T1 sequence (Q5U3Y7 1-176): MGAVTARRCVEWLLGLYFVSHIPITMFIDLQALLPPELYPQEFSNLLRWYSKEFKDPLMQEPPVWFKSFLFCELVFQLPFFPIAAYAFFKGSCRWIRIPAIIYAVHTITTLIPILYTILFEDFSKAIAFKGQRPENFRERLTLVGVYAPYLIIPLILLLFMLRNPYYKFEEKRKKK

[2] = biological target: T2, human VAChT (Homo sapiens, UniProt Q16572); assay: VAChT competitive binding assay with [^3H]vesamicol
T2 sequence (Q16572 1-532): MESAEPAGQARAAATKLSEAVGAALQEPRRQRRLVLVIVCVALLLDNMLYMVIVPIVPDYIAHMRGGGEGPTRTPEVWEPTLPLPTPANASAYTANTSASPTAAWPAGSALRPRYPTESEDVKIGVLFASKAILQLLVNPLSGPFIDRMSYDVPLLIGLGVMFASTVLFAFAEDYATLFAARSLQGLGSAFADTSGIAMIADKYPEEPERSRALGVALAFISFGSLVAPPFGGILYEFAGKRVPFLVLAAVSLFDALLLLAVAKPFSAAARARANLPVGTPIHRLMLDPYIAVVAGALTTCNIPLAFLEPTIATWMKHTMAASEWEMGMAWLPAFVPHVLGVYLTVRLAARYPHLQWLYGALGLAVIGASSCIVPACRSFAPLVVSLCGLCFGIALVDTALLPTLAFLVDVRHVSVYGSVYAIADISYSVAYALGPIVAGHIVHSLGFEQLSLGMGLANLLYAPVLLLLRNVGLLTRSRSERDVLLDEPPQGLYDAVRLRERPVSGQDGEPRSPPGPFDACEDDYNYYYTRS

[3] = post-injection, human brain SPECT; cited from earlier work
[4] = system: VAChT; conditions: brain of both NHP and human subjects; cited from earlier work

Ki [1]: > 10 µM
Compound: O=C(c1ccc(F)cc1)C1CCN(C2Cc3c(cccc3OCCF)CC2O)CC1 (racemic) [Compound 18a, (1-(8-(2-Fluoroethoxy)-3-hydroxy-1,2,3,4-tetrahydronaphthalen-2-yl)piperidin-4-yl)(4-fluorophenyl)methanone]

Ki [1]: > 10 µM
VAChT/ σ2 ([1]; selectivity ratio): >10,000
selectivity for VAChT versus σ receptors [2]: > 10,000 fold
Compound: O=C(c1ccc(F)cc1)C1CCN(C2Cc3c(cccc3OCCF)CC2O)CC1 (single isomer, unassigned; (-)) [(-)-18a, (-)-(1-(8-(2-Fluoroethoxy)-3-hydroxy-1,2,3,4-tetrahydronaphthalen-2-yl)piperidin-4-yl)(4-fluorophen-yl)-methanone]

Compound: OC1Cc2cccc([123I])c2CC1N1CCC(c2ccccc2)CC1 (single isomer, unassigned; (-)) [[^123I]IBVM, (-)-5-[^123I]iodo-benzovesamicol]
time required for quantification of peak uptake in the target regions [3]: at least 6 hr

Compound: O[C@@H]1Cc2cccc(OCC[18F])c2C[C@H]1N1CCC(c2ccccc2)CC1 [[^18F]FEOBV, [^18F]fluoroethoxy-benzovesamicol]
delayed equilibrium of brain kinetics [4]: > 360 min p.i.

Reference: paper PMC4524497 (Bioorganic & medicinal chemistry, 2015)
